Measured values as given in patent US7094909B2, “HIV protease inhibitors, compositions containing the same, their pharmaceutical uses and materials for their synthesis” (priority 2001, dated 2006).
Read-outs that look alike come from different tables or passages of the source.

What was measured:
[1] = target: T1, HIV-1 protease (Q7S mutant form) (Human immunodeficiency virus type 1 group M subtype B, UniProt P04585, Q495S); assay: HIV-1 Protease RET assay; format: biochemical
T1 construct: made in house
Summary of the method: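 Q7S HIV-1 protease, refolded from urea, 2 nM active dimer with 5 μM EDANS/DABCYL peptide cleaved at Tyr-Pro; fluorescence 340/490 nm. 12 min at 37 °C in 0.1M sodium acetate pH 4.8, 1M NaCl, 10% DMSO. Ki from Morrison tight-binding fit.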

[2] = tested on: HIV-1 (HIV-1 RF, HIV-1 NL4-3) in CEM-SS / MT-2 cells; assay: Cytopathic effect (CPE) inhibition assay (XTT/MTT dye reduction); format: cell-based
Method: T-cell lines, CEM-SS, and MT-2, and viruses HIV-1 RF and HIV-1 NL4-3 (pNL4-3) were obtained from the National Institutes of Health (AIDS Research and Reference Reagent Program, Bethesda, Md.).
Cytopathic Effect (CPE) Inhibition Assays
The ability of compounds to protect cells against HIV infection was measured by the […] dye reduction method, essentially as described (See Pauwels, R. Balzarini, J. Baba, M. Snoeck, R. Schols, D. Herdewijn, P. Desmyter, J. and De Clercq, E. 1988, “Rapid and automated tetrazolium-based colorimetric assay for the detection of anti-HIV compounds,”. J Virol. Methods., 20: 309–321 and Weislow, O. S. Kiser, R. Fine, D. L. Bader, J. Shoemaker, R. H. and Boyd, M. R. 1989. “New soluble-formazan assay for HIV-1 cytopathic effects: application to high-flux screening of synthetic and natural products for AIDS-antiviral activity”. J. Natl. Cancer Inst. 81:577–586). Subject cells were infected with test virus at an moi of 0.025 to 0.819 or mock infected with medium only and added at 2×10^4 cells per well into 96 well plates containing half-log dilutions of test compounds. Six days later, 50 μl of XTT (1 mg/ml XTT tetrazolium, 0.02 nM phenazine methosulfate) was added to the wells and the plate was reincubated for four hours. Viability, as determined by the amount of XTT formazan produced, was quantified spectrophotometrically by absorbance at 450 nm. Data from CPE assays were expressed as the percent of formazan produced in compound-treated cells compared to formazan produced in wells of uninfected, compound-free cells. The fifty percent effective concentration (EC50) was calculated as the concentration of compound that effected an increase in the percentage of formazan production in infected, compound-treated cells to 50% of that produced by uninfected, compound-free cells. The 50% cytotoxicity concentration (CC50) was calculated as the concentration of compound that decreased the percentage of formazan produced in uninfected, compound-treated cells to 50% of that produced in uninfected, compound-free cells. The therapeutic index was calculated by dividing the cytotoxicity (CC50) by the antiviral activity (EC50).

[3] = Ave. Ki (nM), RET assay, Q7S enzyme, Morrison tight binding fit
[4] = Human immunodeficiency virus 1, NL43, read-out: Ave CPE EC50

Compound	Ki ([1]; Ki, unit inferred)	EC50 ([2]; Human immunodeficiency virus 1, NL43, unit inferred, read-out: EC50)	Ki [1, 3]	EC50 [2, 4]
Cc1cccc(C)c1OCC(=O)N[C@@H](Cc1ccccc1)[C@H](O)C(=O)N1CSC(C)(C)[C@H]1C(=O)NCc1c(F)cccc1F	0.32 nM	1.88 µM	–	–
Cc1c(O)cccc1C(=O)N[C@@H](Cc1ccccc1)[C@H](O)C(=O)N1CSC(C)(C)[C@H]1C(=O)NC1CC1c1ccccc1 (mixture of isomers) [Example A28, (R)-3-((2S,3S)-2-Hydroxy-3-{[1-(3-hydroxy-2-methyl-phenyl)-methanoyl]-amino}-4-phenyl-butanoyl)-5,5-dimethyl-thiazolidine-4-carboxylic acid (2-phenyl-cyclopropyl)-amide]	–	–	3.4 nM	0.327 µM
Cc1c(O)cccc1C(=O)N[C@@H](Cc1ccccc1)[C@H](O)C(=O)N1CSC(C)(C)[C@H]1C(=O)NCc1ccccn1 [Example A3, (R)-3-((2S,3S)-2-Hydroxy-3-{[1-(3-hydroxy-2-methyl-phenyl)-methanoyl]-amino}-4phenyl-butanoyl)-5,5-dimethyl-thiazolidine-4-carboxylic acid (pyridin-2-ylmethyl)-amide]	–	–	0.51 nM	0.156 µM
Cc1c(O)cccc1C(=O)N[C@@H](Cc1ccccc1)[C@H](O)C(=O)N1CSC(C)(C)[C@H]1C(=O)NCc1cccnc1 [Example A5, (R)-3-((2S,3S)-2-Hydroxy-3-{[1-(3-hydroxy-2-methyl-phenyl)-methanoyl]-amino}-4-phenyl-butanoyl)-5,5-dimethyl-thiazolidine-4-carboxylic acid (pyridin-3-ylmethyl)-amide]	–	–	0.2 nM	0.148 µM
Cc1c(O)cccc1C(=O)N[C@@H](Cc1ccccc1)[C@H](O)C(=O)N1CSC(C)(C)[C@H]1C(=O)NCc1ccncc1 [Example A8, (R)-3-((2S,3S)-2-Hydroxy-3-{[1l-(3-hydroxy-2-methyl-phenyl)-methanoyl]-amino}-4-phenyl-butanoyl)-5,5-dimethyl-thiazolidine-4-carboxylic acid (pyridin-4-ylmethyl)-amide]	–	–	1.4 nM	0.451 µM
Cc1c(O)cccc1C(=O)N[C@@H](Cc1ccccc1)[C@H](O)C(=O)N1CSC(C)(C)[C@H]1C(=O)NCc1cccc2ccccc12 [Example A11, (R)-3-((2S,3S)-2-Hydroxy-3-{[1-(3-hydroxy-2-methyl-phenyl)-methanoyl]-amino}-4-phenyl-butanoyl)-5,5-dimethyl-thiazolidine-4-carboxylic acid (naphthalen-1-ylmethyl)-amide]	–	–	0.5 nM	0.144 µM
Cc1c(O)cccc1C(=O)N[C@@H](Cc1ccccc1)[C@H](O)C(=O)N1CSC(C)(C)[C@H]1C(=O)NCc1csc2ccc(Cl)cc12 [Example A24, (R)-3-((2S,3S)-2-Hydroxy-3-{[1-(3-hydroxy-2-methyl-phenyl)-methanoyl]-amino}-4-phenyl-butanoyl)-5,5-dimethyl-thiazolidine-4-carboxylic acid (5-chloro-benzo[b]thiophen-3-ylmethyl)-amide]	–	–	0.52 nM	0.466 µM
Cc1c(O)cccc1C(=O)N[C@@H](Cc1ccccc1)[C@H](O)C(=O)N1CSC(C)(C)[C@H]1C(=O)NC1CC1 [Example A25, (R)-3-((2S,3S)-2-Hydroxy-3-{[1-(3-hydroxy-2-methyl-phenyl)-methanoyl]-amino}-4-phenyl-butanoyl)-5,5-dimethyl-thiazolidine-4-carboxylic acid cyclopropylamide]	–	–	0.97 nM	0.125 µM
Cc1c(O)cccc1C(=O)N[C@@H](Cc1ccccc1)[C@H](O)C(=O)N1CSC(C)(C)[C@H]1C(=O)NC1CCC1 [Example A26, (R)-3-((2S,3S)-2-Hydroxy-3-{[1-(3-hydroxy-2-methyl-phenyl)-methanoyl]-amino}-4-phenyl-butanoyl)-5,5-dimethyl-thiazolidine-4-carboxylic acid cyclobutylamide]	–	–	0.6 nM	0.168 µM
Cc1c(O)cccc1C(=O)N[C@@H](Cc1ccccc1)[C@H](O)C(=O)N1CSC(C)(C)[C@H]1C(=O)NC1CCCC1 [Example A27, (R)-3-((2S,3S)-2-Hydroxy-3-{[1-(3-hydroxy-2-methyl-phenyl)-methanoyl]-amino}-4-phenyl-butanoyl)-5,5-dimethyl-thiazolidine-4-carboxylic acid cyclopentylamide]	–	–	< 0.1 nM	0.11 µM
Cc1c(O)cccc1C(=O)N[C@@H](Cc1ccccc1)[C@H](O)C(=O)N1CSC(C)(C)[C@H]1C(=O)N1CCOCC1 [Example A30]	–	–	10.9 nM	0.586 µM
Cc1c(O)cccc1C(=O)N[C@@H](Cc1ccccc1)[C@H](O)C(=O)N1CSC(C)(C)[C@H]1C(=O)NC1CCCCCC1 [Example A31, (R)-3-((2S,3S)-2-Hydroxy-3-{[1-(3-hydroxy-2-methyl-phenyl)-methanoyl]-amino}-4-phenyl-butanoyl)-5,5-dimethyl-thiazolidine-4-carboxylic acid cycloheptylamide]	–	–	0.44 nM	0.062 µM
Cc1c(O)cccc1C(=O)N[C@@H](Cc1ccccc1)[C@H](O)C(=O)N1CSC(C)(C)[C@H]1C(=O)N1CCSCC1 [Example A33, N-{(1S,2S)-1-Benzyl-3-[(R)-5,5-dimethyl-4-(1-thiomorpholin-4-yl-methanoyl)-thiazolidin-3-yl]-2-hydroxy-3-oxo-propyl}-3-hydroxy-2-methyl-benzamide]	–	–	5.1 nM	0.749 µM
Cc1c(O)cccc1C(=O)N[C@@H](Cc1ccccc1)[C@H](O)C(=O)N1CSC(C)(C)[C@H]1C(=O)N1CCCCC1 [Example A34, N-{(1S,2S)-1-Benzyl-3-[(R)-5,5-dimethyl-4-(1-piperidin-1-yl-methanoyl)-thiazolidin-3-yl]-2-hydroxy-3-oxo-propyl}-3-hydroxy-2-methyl-benzamide]	–	–	1.4 nM	0.386 µM
Cc1c(O)cccc1C(=O)N[C@@H](Cc1ccccc1)[C@H](O)C(=O)N1CSC(C)(C)[C@H]1C(=O)NC[C@@H]1CCCO1 [Example A37, (R)-3-((2S,3S)-2-Hydroxy-3-{[1-(3-hydroxy-2-methyl-phenyl)-methanoyl]-amino}-4-phenyl-butanoyl)-5,5-dimethyl-thiazolidine-4-carboxylic acid (tetrahydro-furan-2-ylmethyl)-amide]	–	–	3.7 nM	0.416 µM
Cc1c(O)cccc1C(=O)N[C@@H](Cc1ccccc1)[C@H](O)C(=O)N1CSC(C)(C)[C@H]1C(=O)N[C@@H]1CCCc2ncccc21 [Example A43, 3-[2-Hydroxy-3-(3-hydroxy-2-methyl-benzoylamino)-4-phenyl-butyryl]-5,5-dimethyl-thiazolidine-4-carboxylic acid (5,6,7,8-tetrahydro-quinolin-5-yl)-amide]	–	–	2.6 nM	0.534 µM
Cc1c(O)cccc1C(=O)N[C@@H](Cc1ccccc1)[C@H](O)C(=O)N1CSC(C)(C)[C@H]1C(=O)NCc1n[nH]c2ccccc12 [Example A44, 3-(2-Hydroxy-3-{[1-(3-hydroxy-2-methyl-phenyl)-methanoyl]-amino}-4-phenyl-butanoyl)-5,5-dimethyl-thiazolidine-4-carboxylic acid (1H-indazol-3-ylmethyl)-amide]	–	–	1.4 nM	0.478 µM
Cc1c(O)cccc1C(=O)N[C@@H](Cc1ccccc1)[C@H](O)C(=O)N1CSC(C)(C)[C@H]1C(=O)NCC1CCOC1 (stereo partly drawn) [Example A46, (R)-3-((2S,3S)-2-Hydroxy-3-{[1-(3-hydroxy-2-methyl-phenyl)-methanoyl]-amino}-4-phenyl-butanoyl)-5,5-dimethyl-thiazolidine-4-carboxylic acid (tetrahydro-furan-3-ylmethyl)-amide]	–	–	1.1 nM	0.469 µM
